Experimental findings from patent US20230203060A1 (GENFLEET THERAPEUTICS (SHANGHAI) INC., priority 2020, published 2023) are described below.

SMILES strings stand for the structures. Counter-ions that a name gives are not always drawn.

Broadly, the IC50 is the point on the concentration scale where inhibition reaches its midpoint.

The test system of the experiment is KRAS G12C mutant NCI-H358 cells. Put plainly: Cell proliferation inhibition experiment, 3D spheroid, CellTiter-Glo, NCI-H358. It counts as cell-based, human. Conditions: Homo sapiens, NCI-H358, 120 h, NCI-H358 (KRAS G12C mutant) 3D spheroid, 5 days with compound, CellTiter-Glo; read-out: H358 IC50. The source says:
Raw materials and instruments: NCI-H358 purchased from ATCC; article number: CRL-5807; batch number: 70010825; A549 purchased from ATCC; article number: CCL-185; batch number: 70007820; RPMI1640 purchased from Gibco; article number: 11875-093; batch number: 2152748; F-12K purchased from Gibco; article number: 21127-022; batch number: 2185853; FBS purchased from Gibco; article number: 10099-141; batch number: 2109290CP; PS purchased from Gibco; article number: 15140-122; batch number: 2145451; Trypsin-EDTApurchased from Gibco; article number: 25200-072; batch number: 2085552; CellTiter Glo working solution purchased from Promega; article number: G9683; batch number: 398478; DMSO purchased from VWR AMRESCO; article number: 0231-500ML; batch number: 18C0656168; 384-well spheroid plate purchased from Corning; article number: 3830; batch number: 27519032; white opaque 384-well plate purchased from Corning; article number: 3570; batch number: 26819023; microplate reader purchased from PerkinElmer; model: Envision MLD2105-0020; equipment number 1050369.
NCI-H358 is a KRAS G12C mutant human non-small cell lung cancer cell line, cultured in 10% FBS RPMI-1640+1% PS culture medium; and A549 is a KRAS G12S mutant human lung adenocarcinoma cell line, cultured in 10% FBS F-12K+1% PS culture medium. Cells at logarithmic growth stage were taken, digested with trypsin-EDTA, then collected and counted. H358 was adjusted to 1.8 E4 cells/mL with 2% FBS RPMI-1640 culture medium, and A549 was adjusted to 8.9 E3 cells/mL with 2% FBS F-12K culture medium; 800 (45 μL) H358 or 400 (45 μL) A549 were inoculated respectively in a 384-well spheroid plate and cultured overnight to establish a 3D cell model. A 3.16-fold gradient concentration stock solution of 1000× compound was prepared with DMSO, and diluted 100-fold to 10× compound stock solution with 2% FBS culture medium. On the second day after cell inoculation, 5 μL of 10× compound stock solution was added to each cell culture well, with a final concentration of 1× and a DMSO content of 0.1%. DMSO was used as experimental control (control), and 2% FBS culture medium was used as blank control (blank). After 5 days of compound cell culture, 25 μL of CellTiter-Glo working solution was added to each well, mixed well at 400 rpm and incubated for 30 minutes. After standing at room temperature for 30 minutes, 40 μL of the mixed solution was transferred to a white opaque 384-well plate, and the luminescence chemiluminescence value was read with a microplate reader. The cell proliferation inhibition rate IR (%)=(RLU control -RLU compound)/(RLU control -RLU blank) x100% was calculated. The gradient dilution concentration of the compound and the corresponding cell proliferation inhibition rate were fitted by Prism 6 four-parameter method, and the IC50 value was calculated. The inhibitory activity of the compounds prepared in the above embodiments of the present disclosure on KRAS G12C mutant NCI-H358 cells was 0.0001 μM to 0.5 μM; the inhibitory activity of some compounds on KRAS G12C mutant NCI-H358 cells was 0.001 μM to 0.1 μM or 0.001 μM to 0.05 μM.
(In ATP-based viability assays light output follows the ATP content of the culture.)
`C=CC(=O)N1CCN2C(=O)c3c(N4C[C@@H](C)N(C)[C@@H](C)C4)nc(-c4c(O)cccc4F)c(Cl)c3OC[C@H]2C1` [Z246, (6aR)-8-acryloyl-4-chloro-3-(2-fluoro-6-hydroxyphenyl)-1-((3S,5R)-3,4,5-trimethylpiperazin-1-yl)-6,6a,7,8,9,10-hexahydro-12H-pyrazino[2,1-c]pyrido[3,4-f][1,4]oxazepin-12-one]: the IC50 turned out to be 0.035 µM.
With `C=CC(=O)N1CCN2C(=O)c3c(N4CCCC(C)C4C)nc(-c4c(O)cccc4F)c(Cl)c3OC[C@H]2C1` (stereo partly drawn) [Z99, (6aR)-8-acryloyl-4-chloro-1-(2,3-dimethylpiperidin-1-yl)-3-(2-fluoro-6-hydroxyphenyl)-6,6a,7,8,9,10-hexahydro-12H-pyrazino[2,1-c]pyrido[3,4-f][1,4]oxazepin-12-one] the figure was 0.0263 µM.
Then `C=CC(=O)N1CCN2C(=O)C3=C(OC[C@H]2C1)C(C)=C(c1c(O)cccc1F)CN3N1C[C@@H](O)CC1(C)C` (single isomer, unassigned) [Z336-1], with 0.043 µM; and `C=CC(=O)N1CCN2C(=O)c3c(cc(-c4c(O)cccc4F)nc3N3CCOC(C)(C)C3)OC[C@H]2C1` [Z263, (6aR)-8-acryloyl-1-(2,2-dimethylmorpholino)-3-(2-fluoro-6-hydroxyphenyl)-6,6a,7,8,9,10-hexahydro-12H-pyrazino[2,1-c]pyrido[3,4-f][1,4]oxazepin-12-one], with 0.069 µM.
Then `C=CC(=O)N1CCN2C(=O)c3c(N4CCN(C5COC5)C[C@H]4C)nc(-c4c(O)cccc4F)c(Cl)c3OC[C@H]2C1` (single isomer, unassigned) [Z239-2], with 0.0558 µM.
With `C=CC(=O)N1CCN2C(=O)c3c(N4CCN5CCC[C@H]5C4)nc(-c4c(O)cccc4F)c(Cl)c3OC[C@H]2C1` [Z317-1, (6aR)-8-acryloyl-4-chloro-3-(2-fluoro-6-hydroxyphenyl)-1-((S)-hexahydropyrrolo[1,2-a]pyrazin-2(1H)-yl)-6,6a,7,8,9,10-hexahydro-12H-pyrazino[2,1-c]pyrido[3,4-f][1,4]oxazepin-12-one], the concentration for half-maximal inhibition (IC50) came out at 0.0541 µM.
Then `C=CC(=O)N1CCN2C(=O)c3c(N4CCOCC4)nc(-c4c(O)cccc4F)c(F)c3OC[C@H]2C1` [Z329, (6aR)-8-acryloyl-1-(morpholino)-4-fluoro-3-(2-fluoro-6-hydroxyphenyl)-6,6a,7,8,9,10-hexahydro-12H-pyrazino[2,1-c]pyrido[3,4-f][1,4]oxazepin-12-one], with 0.137 µM; and `C=CC(=O)N1CCN2C(=O)c3c(N4[C@H](C)COC[C@@H]4C)nc(-c4c(O)cccc4F)c(Cl)c3OC[C@H]2C1` [Z252-1, (6aR)-8-acryloyl-1-(3R,5S-dimethylmorpholino)-4-chloro-3-(2-fluoro-6-hydroxyphenyl)-6,6a,7,8,9, 10-hexahydro-12H-pyrazino[2,1-c]pyrido[3,4-f][1,4]oxazepin-12-one], with 0.144 µM; and `C=CC(=O)N1CCN2C(=O)c3c(N4C[C@H](C)O[C@@H](C)C4)nc(-c4c(O)cccc4F)c(Cl)c3OC[C@H]2C1` [Z248-1, (6aR)-8-acryloyl-1-((2S,6S)-2,6-dimethylmorpholino)-4-chloro-3-(2-fluoro-6-hydroxyphenyl)-6,6a,7,8,9,10-hexahydro-12H-pyrazino[2,1-c]pyrido[3,4-f][1,4]oxazepin-12-one], with 0.234 µM.
Turning to `C=CC(=O)N1CCN2C(=O)c3c(N4CCOC(C)(C)C4)nc(-c4c(O)cccc4F)c(F)c3OC[C@H]2C1` [Z255, (6aR)-8-acryloyl-1-(2,2-dimethylmorpholino)-4-fluoro-3-(2-fluoro-6-hydroxyphenyl)-6,6a,7,8,9,10-hexahydro-12H-pyrazino[2,1-c]pyrido[3,4-f][1,4]oxazepin-12-one], the IC50 worked out at 0.032 µM.
As for `C=CC(=O)N1CCN2C(=O)c3c(N4CCOCC4)nc(-c4nc(N)ccc4C(F)(F)F)c(Cl)c3OC[C@H]2C1` [Z267], the IC50 was found to be 0.0313 µM.
Then `C=CC(=O)N1CCN2C(=O)c3c(N4CCC[C@]4(C)CO)nc(-c4c(O)cccc4F)c(Cl)c3OC[C@H]2C1` [Z279-1], with 0.185 µM; and `C=CC(=O)N1CCN2C(=O)c3c(C4=CCN(C)CC4C)nc(-c4c(O)cccc4F)c(Cl)c3OC[C@H]2C1` (stereo partly drawn) [Z304, (6aR)-8-acryloyl-4-chloro-1-(1,3-dimethyl-1,2,3,6-tetrahydropyridin-4-yl)-3-(2-fluoro-6-hydroxyphenyl)-6,6a,7,8,9,10-hexahydro-12H-pyrazino[2,1-c]pyrido[3,4-f]oxazepin-12-one], with 0.161 µM.
Then `C=CC(=O)N1CCN2C(=O)c3c(OCC4N(C)CCC4(C)C)nc(-c4c(O)cccc4F)c(Cl)c3OC[C@H]2C1` (stereo partly drawn) [Z110, (6aR)-8-acryloyl-4-chloro-1-((1,3,3-trimethyltetrahydropyrrol-2-yl)methoxy)-3-(2-fluoro-6-hydroxyphenyl)-6,6a,7,8,9,10-hexahydro-12H-pyrazino[2,1-c]pyrido[3,4-f][1,4]oxazepin-12-one], with 0.0449 µM; and `C=CC(=O)N1CCN2C(=O)c3c(N4Cc5nn(C)cc5[C@H]4C)nc(-c4c(O)cccc4F)c(Cl)c3OC[C@H]2C1` (single isomer, unassigned) [Z345-1], with 0.0452 µM.
Then `C=CC(=O)N1CCN2C(=O)c3c(N4Cc5cnn(C)c5[C@@H]4C)nc(-c4c(O)cccc4F)c(Cl)c3OC[C@H]2C1` (single isomer, unassigned) [Z292S, trifluoroacetate], with 0.0373 µM; and `C=CC(=O)N1CCN2C(=O)c3c(N4CCC45CCC5)nc(-c4c(O)cccc4F)c(Cl)c3OC[C@H]2C1` [Z309, (6aR)-8-acryloyl-4-chloro-3-(2-fluoro-6-hydroxyphenyl)-1-(1-azaspiro[3.3]heptan-1-yl)-6,6a,7,8,9,10-hexahydro-12H-pyrazino[2,1-c]pyrido[3,4-f][1,4]oxazepin-12-one], with 0.291 µM; and `C=CC(=O)N1CCN2C(=O)c3c(N4CCOC(C)(C)C4)nc(-c4c(C)ccc5[nH]ncc45)c(F)c3OC[C@H]2C1` [Z238, (6aR)-8-acryloyl-1-(2,2-dimethylmorpholino)-4-fluoro-3-(5-methyl-1H-indazol-4-yl)-6,6a,7,8,9,10-hexahydro-12H-pyrazino[2,1-c]pyrido[3,4-f][1,4]oxazepin-12-one], with 0.285 µM.
Regarding `C=CC(=O)N1CCN2C(=O)c3c(N4C(C)COCC4C)nc(-c4c(O)cccc4F)c(Cl)c3OC[C@H]2C1` (stereo partly drawn) [Z252, (6aR)-8-acryloyl-1-(3,5-dimethylmorpholino)-4-chloro-3-(2-fluoro-6-hydroxyphenyl)-6,6a,7,8,9,10-hexahydro-12H-pyrazino[2,1-c]pyrido[3,4-f][1,4]oxazepin-12-one], the IC50 is 0.128 µM.
As to `C=CC(=O)N1CCN2C(=O)c3c(N4CCOCC45CCC5)nc(-c4c(O)cccc4F)c(Cl)c3OC[C@H]2C1` [Z90, (6aR)-8-acryloyl-4-chloro-3-(2-fluoro-6-hydroxyphenyl)-1-(8-oxa-5-azaspiro[3.5]nonan-5-yl)-6,6a,7,8,9,10-hexahydro-12H-pyrazino[2,1-c]pyrido[3,4-f][1,4]oxazepin-12-one], the 50% inhibitory concentration (IC50) came out at 0.019 µM.
With `C=CC(=O)N1CCN2C(=O)c3c(N4C[C@H](O)CC4(C)C)nc(-c4c(O)cccc4F)c(F)c3OC[C@H]2C1` (single isomer, unassigned) [Z256-2] the figure was 0.027 µM.
